According to patent publication US11466019B2, “Triazolo[4,5-d] pyramidine derivatives and their use as purine receptor antagonists” (Vernalis (R&D) Limited, priority 2008, dated 2022):

Tests used:
[1] = molecular target: T1, human adenosine A1 receptors (Homo sapiens, UniProt P30542); experiment: Adenosine receptor binding: binding affinities at hA1 receptors ([3H]DPCPX displacement); settings: Table 1; for Ki: [3H]DPCPX displacement, CHO-K1 membranes, read-out: Binding Affinity hA1-Ki; for Binding Selectivity A1/A2a: ratio of Ki values
T1 construct: expressed in transfected cells; host or cells: CHO-K1
T1 sequence (P30542 1-326): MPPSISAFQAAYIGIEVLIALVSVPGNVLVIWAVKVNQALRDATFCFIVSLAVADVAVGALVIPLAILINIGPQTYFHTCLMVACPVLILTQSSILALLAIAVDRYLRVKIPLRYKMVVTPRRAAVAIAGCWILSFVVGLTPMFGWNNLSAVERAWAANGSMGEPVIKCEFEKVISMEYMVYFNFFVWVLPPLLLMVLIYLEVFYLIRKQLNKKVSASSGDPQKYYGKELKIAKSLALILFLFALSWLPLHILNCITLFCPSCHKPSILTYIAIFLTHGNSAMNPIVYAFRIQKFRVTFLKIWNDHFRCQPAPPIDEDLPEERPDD
Description: Adenosine Receptor Binding: Binding Affinities at hA1 Receptors
The resultant homogenate was kept for immediate use in the binding.
(§1) Binding assays were performed in a total volume of 250 μL, containing [^3H]-DPCPX (3.0 nM), membranes and additional drugs. Total binding was determined using drug dilution buffer (50 mM Tris-HCl pH:7.5, 10 mM MgCl2, 5% DMSO). Non-specific binding was determined using 300 μM N6-cyclohexyladenosine (CHA). […] Filters were left to dry overnight, and Microscint-0 scintillation fluid was then added to the filters. The filters were then left for at least 2 hours before the radioactivity was assessed using a Canberra Packard TopCount microplate scintillation counter.
To determine the free ligand concentration, three vials were counted with 25 μL of [^3H]DPCPX containing 4 mL of Ultima-Gold MV scintillant on a Beckman LS6500 multi-purpose scintillation counter.
(§2) Data was analysed using a 4 parameter logistical equation and non-linear regression which yields affinity constants (pIC50), and slope parameters:
(§3) [formula] where E is the quantity of binding and [A] is the competitor concentration. The Ki is then determined using the Cheng-Prusoff equation: […]

[2] = molecular target: T2, human adenosine A2A receptors (Homo sapiens, UniProt P29274); experiment: Adenosine receptor binding: binding affinities at hA2A receptors ([3H]CGS-21680 displacement); settings: Table 1; [3H]CGS-21680 displacement, HEK-293 membranes; read-out: Binding Affinity hA2A-Ki
T2 construct: host or cells: HEK-293
Description: Adenosine Receptor Binding: Binding Affinities at hA2A Receptors
as §1, with “The resultant homogenate was kept for immediate use in the binding assay. Binding” for “Binding”, “[^3H]-CGS21680 (20.0” for “[^3H]-DPCPX (3.0”, “pH 7.5,” for “pH:7.5,”, “CHA.” for “N6-cyclohexyladenosine (CHA).”
To determine the free ligand concentration, three vials were counted with 25 μL of [^3H]CGS21680 containing 4 mL of Ultima-Gold MV scintillant on a Beckman LS6500 multi-purpose scintillation counter.
as §2, §3

hA2B receptors = molecular target: T3, hA2B receptors (Homo sapiens, UniProt P29275); experiment: Adenosine receptor binding: binding affinities at hA2B receptors ([3H]-ZM241385 displacement); settings: Table 1; for Ki: [3H]-ZM241385 displacement, HEK-293 membranes, read-out: Binding Affinity hA2B-Ki; for Binding Selectivity A2b/A2a: ratio of Ki values
T3 construct: host or cells: HEK-293
T3 sequence (P29275 1-332): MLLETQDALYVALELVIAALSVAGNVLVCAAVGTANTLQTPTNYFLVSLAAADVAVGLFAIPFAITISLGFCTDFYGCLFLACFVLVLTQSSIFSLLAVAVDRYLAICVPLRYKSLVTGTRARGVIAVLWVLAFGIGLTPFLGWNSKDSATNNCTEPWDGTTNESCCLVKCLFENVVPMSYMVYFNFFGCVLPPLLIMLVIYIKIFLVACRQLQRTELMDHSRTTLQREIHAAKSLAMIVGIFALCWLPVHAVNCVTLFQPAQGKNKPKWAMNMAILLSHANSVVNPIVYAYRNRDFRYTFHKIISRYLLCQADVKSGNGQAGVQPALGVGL

[3] = molecular target: T4, human adenosine A3 receptors (Homo sapiens, UniProt P0DMS8); experiment: Adenosine receptor binding: binding affinities at hA3 receptors ([125I]-AB MECA displacement); settings: Table 1; for Ki: [125I]-AB MECA displacement, CHO-K1 membranes, read-out: Binding Affinity hA3-Ki; for Binding Selectivity A3/A2a: ratio of Ki values
T4 construct: expressed in transfected cells; host or cells: CHO-K1
T4 sequence (P0DMS8 1-318): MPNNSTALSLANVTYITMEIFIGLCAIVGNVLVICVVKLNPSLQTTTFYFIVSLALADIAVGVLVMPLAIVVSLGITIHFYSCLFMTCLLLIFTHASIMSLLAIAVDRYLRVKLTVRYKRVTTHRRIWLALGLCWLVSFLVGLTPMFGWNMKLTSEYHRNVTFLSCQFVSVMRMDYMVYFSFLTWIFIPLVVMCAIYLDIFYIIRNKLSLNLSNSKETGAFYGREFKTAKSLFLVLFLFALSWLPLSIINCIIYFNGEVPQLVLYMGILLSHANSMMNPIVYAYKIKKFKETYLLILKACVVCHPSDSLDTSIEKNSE
Description: [formula] Adenosine Receptor Binding: Binding Affinities at hA3 Receptors
The resultant homogenate was kept for immediate use in the binding assay.
Total binding was determined using drug dilution buffer (50 mM Tris-HCl pH 7.5, 10 mM MgCl2, 5% DMSO). Non-specific binding was determined using 10 μM IB-MECA. […] Filters were left to dry overnight, and Microscint-0 scintillation fluid was then added to the filters. The filters were then left for at least 2 hours before the radioactivity was assessed using a Canberra Packard TopCount microplate scintillation counter.
as §2, §3

[4] = tested on: haloperidol-induced deficits in locomotor activity in mice; experiment: Haloperidol-induced hypolocomotion model (HaloLMA); format: in vivo; settings: female TO mice, intraperitoneal, haloperidol 0.2 mg/kg
Excerpt: Evaluation of Potential Anti-Parkinsonian Activity In Vivo: Haloperidol-Induced Hypolocomotion Model
This approach is also considered a valid method for screening drugs with potential antiparkinsonian effects. Thus, the ability of novel adenosine antagonists to block haloperidol-induced deficits in locomotor activity in mice can be used to assess both in vivo and potential antiparkinsonian efficacy.
Female TO mice (25-30 g) are used for all experiments. Animals are housed in groups of 8 (cage size-40 cm (width) by 40 cm (length) by 20 cm (height)) under 12 hour light/dark cycle (lights on 08:00), in a temperature (20±2° C.) and humidity (55±15%) controlled environment. Animals have free access to food and water, and are allowed at least 7 days to acclimatize after delivery before experimental use.
Liquid injectable haloperidol (e.g., 1 mL Serenance ampoules from Baker Norton, Harlow, Essex, each containing haloperidol BP 5 mg) are diluted to a final concentration of 0.02 mg/mL using saline. Test compounds are typically prepared as aqueous suspensions in 8% Tween. All compounds are administered intraperitoneally in a volume of 10 mL/kg.
1.5 hours before testing, mice are administered 0.2 mg/kg haloperidol, a dose that reduces baseline locomotor activity by at least 50%. Test substances are typically administered 5-60 minutes prior to testing. The animals are then placed individually into clean, clear polycarbonate cages (20 cm (width) by 40 cm (length) by 20 cm (height), with a flat perforated, Perspex lid). Horizontal locomotor activity is determined by placing the cages within a frame containing a 3 by 6 array of photocells linked to a computer, which tabulates beam breaks. Mice are left undisturbed to explore for 1 hour, and the number of beams breaks made during this period serves as a record of locomotor activity which is compared with data for control animals for statistically significant differences.
A number of the exemplified compounds of the present invention were tested in this assay and the results obtained are shown in Table 3, below.

T2 sequence (P29274 whole entry): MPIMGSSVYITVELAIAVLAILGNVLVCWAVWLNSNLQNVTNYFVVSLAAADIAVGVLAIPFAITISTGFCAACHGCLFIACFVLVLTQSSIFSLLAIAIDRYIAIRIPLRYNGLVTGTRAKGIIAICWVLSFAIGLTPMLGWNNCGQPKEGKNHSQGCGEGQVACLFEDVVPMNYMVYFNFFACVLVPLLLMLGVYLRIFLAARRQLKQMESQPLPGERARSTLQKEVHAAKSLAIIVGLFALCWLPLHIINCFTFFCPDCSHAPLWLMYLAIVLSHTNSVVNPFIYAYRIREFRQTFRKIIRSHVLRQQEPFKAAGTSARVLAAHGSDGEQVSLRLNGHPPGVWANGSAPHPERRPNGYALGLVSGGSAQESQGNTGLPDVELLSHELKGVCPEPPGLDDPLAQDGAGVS

## COCc1cccc(Cn2nnc3c(-c4ccccc4)nc(N)nc32)n1 [Example 12, 7-phenyl-3-(6-[methoxymethyl]pyrid-2-ylmethyl)-3H-[1,2,3]triazolo[4,5-d]pyrimidin-5-amine]
[1]
  Ki: 270 nM
  Binding Selectivity A1/A2a: 96
[2]
  Ki: 2.8 nM
hA2B receptors
  Ki: 1000 nM
  Binding Selectivity A2b/A2a: 354
[3]
  Ki: 8170 nM
  Binding Selectivity A3/A2a: 2893
[4]
  In Vivo activity HaloLMA MED: 10 mg/kg

## COc1cccc(-c2nc(N)nc3c2nnn3Cc2cccc(C(C)(C)O)n2)c1 [Example 14, 7-(3-methoxyphenyl)-3-(6-[1-hydroxy-1-methylethyl]pyrid-2-ylmethyl)-3H-[1,2,3]triazolo[4,5-d]pyrimidin-5-amine]
[1]
  Ki: 498 nM
  Binding Selectivity A1/A2a: 83
[2]
  Ki: 6 nM
hA2B receptors
  Ki: 437 nM
  Binding Selectivity A2b/A2a: 73
[3]
  Ki: 613 nM
  Binding Selectivity A3/A2a: 102
[4]
  In Vivo activity HaloLMA MED: 30 mg/kg

## Cc1ccc(-c2nc(N)nc3c2nnn3Cc2cccc(C(C)(C)O)n2)o1 [Example 2, 7-(5-methylfuran-2-yl)-3-(6-[1-hydroxy-1-methylethyl]pyrid-2-ylmethyl)-3H-[1,2,3]triazolo[4,5-d]pyrimidin-5-amine]
[1]
  Ki: 360 nM
  Binding Selectivity A1/A2a: 192
[2]
  Ki: 1.9 nM
hA2B receptors
  Ki: 2190 nM
  Binding Selectivity A2b/A2a: 1165
[3]
  Ki: 706 nM
  Binding Selectivity A3/A2a: 375
[4]
  In Vivo activity HaloLMA MED: 1 mg/kg

## CC(C)(O)c1cccc(Cn2nnc3c(-c4cccc(C#N)c4)nc(N)nc32)n1 [Example 20, 7-(3-cyanophenyl)-3-(6-[1-hydroxy-1-methylethyl]pyrid-2-ylmethyl)-3H-[1,2,3]triazolo[4,5-d]pyrimidin-5-amine]
[1]
  Ki: 731 nM
  Binding Selectivity A1/A2a: 54
[2]
  Ki: 13.4 nM
hA2B receptors
  Ki: 1240 nM
  Binding Selectivity A2b/A2a: 93
[3]
  Binding Selectivity A3/A2a: 634
[4]
  In Vivo activity HaloLMA MED: 3 mg/kg

## CC(C)(O)c1cccc(Cn2nnc3c(-c4ccccc4)nc(N)nc32)n1 [Example 8, 7-phenyl-3-(6-[1-hydroxy-1-methylethyl]pyrid-2-ylmethyl)-3H-[1,2,3]triazolo[4,5-d]pyrimidin-5-amine]
[1]
  Ki: 214 nM
  Binding Selectivity A1/A2a: 44
[2]
  Ki: 4.8 nM
hA2B receptors
  Ki: 1300 nM
  Binding Selectivity A2b/A2a: 269
[3]
  Ki: 3760 nM
  Binding Selectivity A3/A2a: 780
[4]
  In Vivo activity HaloLMA MED: 3 mg/kg

## CCOCCOCc1cccc(Cn2nnc3c(-c4ccc(C)o4)nc(N)nc32)n1 [Example 32]
[1]
  Ki: 334 nM
  Binding Selectivity A1/A2a: 73
[2]
  Ki: 4.6 nM
hA2B receptors
  Ki: 2020 nM
  Binding Selectivity A2b/A2a: 442
[3]
  Ki: 2500 nM
  Binding Selectivity A3/A2a: 545
[4]
  In Vivo activity HaloLMA MED: 1 mg/kg

## Cc1ccc(-c2nc(N)nc3c2nnn3Cc2cccc(C3(O)CCCC3)n2)o1 [Example 3, 7-(5-methylfuran-2-yl)-3-(6-[1-hydroxy-1-cyclopentyl]pyrid-2-ylmethyl)-3H-[1,2,3]triazolo[4,5-d]pyrimidin-5-amine]
[1]
  Ki: 366 nM
  Binding Selectivity A1/A2a: 226
[2]
  Ki: 1.6 nM
hA2B receptors
  Ki: 976 nM
  Binding Selectivity A2b/A2a: 602
[3]
  Ki: 754 nM
  Binding Selectivity A3/A2a: 465
[4]
  In Vivo activity HaloLMA MED: 1 mg/kg

## Cc1csc(-c2nc(N)nc3c2nnn3Cc2cccc(C3(O)CCCC3)n2)n1 [Example 27, 7-(4-methylthiazol-2-yl)-3-(6-[1-hydroxy-1-cyclopentyl]pyrid-2-ylmethyl)-3H-[1,2,3]triazolo[4,5-d]pyrimidin-5-amine]
[1]
  Ki: 1730 nM
  Binding Selectivity A1/A2a: 154
[2]
  Ki: 11.3 nM
hA2B receptors
  Ki: 5740 nM
  Binding Selectivity A2b/A2a: 510
[3]
  Ki: 7520 nM
  Binding Selectivity A3/A2a: 668
[4]
  In Vivo activity HaloLMA MED: 10 mg/kg
